Measured values from patent publication US4857524A, “Thiazolidine compounds and therapeutic method” (Kissei Pharmaceutical Co., Ltd., priority 1987, dated 1989).
pIC50: −log10 of the molar value. Square brackets hold non-standard residues; d marks the D form. Peptide text beside a SMILES is read from it. * marks the point of attachment. Thz = O=C(O)[C@@H]1CSCN1; Cbz = O=C(OCc1ccccc1)*

Biological target: T1, prolyl endopeptidase (Bos taurus, UniProt Q9XTA2)
T1 construct: the enzyme purified from bovine brain; from tissue; host or cells: bovine brain
T1 sequence (Q9XTA2 1-710): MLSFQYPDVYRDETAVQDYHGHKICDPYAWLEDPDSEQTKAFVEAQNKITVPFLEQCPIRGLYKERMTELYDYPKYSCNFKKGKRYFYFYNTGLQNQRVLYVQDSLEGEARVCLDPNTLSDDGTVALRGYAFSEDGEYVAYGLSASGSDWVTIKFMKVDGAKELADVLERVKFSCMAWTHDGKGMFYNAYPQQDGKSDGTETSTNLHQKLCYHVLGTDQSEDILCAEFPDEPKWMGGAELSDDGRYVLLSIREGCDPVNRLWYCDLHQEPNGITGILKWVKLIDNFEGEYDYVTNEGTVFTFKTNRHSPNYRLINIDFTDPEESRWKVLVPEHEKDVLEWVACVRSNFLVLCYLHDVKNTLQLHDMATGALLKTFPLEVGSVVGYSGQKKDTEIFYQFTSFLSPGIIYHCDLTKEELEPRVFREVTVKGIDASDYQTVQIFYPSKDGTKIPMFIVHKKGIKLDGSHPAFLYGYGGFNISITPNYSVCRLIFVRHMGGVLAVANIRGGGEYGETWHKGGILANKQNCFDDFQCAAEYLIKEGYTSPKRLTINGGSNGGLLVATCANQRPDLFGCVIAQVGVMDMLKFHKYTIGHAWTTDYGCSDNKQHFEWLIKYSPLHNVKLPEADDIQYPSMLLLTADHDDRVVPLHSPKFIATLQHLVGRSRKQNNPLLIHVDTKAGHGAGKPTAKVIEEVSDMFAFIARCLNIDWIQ
Assay: Inhibitory Effect for Prolyl Endopeptidase (enzyme purified from bovine brain)
Assay type: biochemical
Method: To 0.5 ml of the supernatant was added 0.5 ml of 0.1% sodium nitrite aqueous solution, and after 3 minutes, 0.5 ml of 0.5% ammonium sulfamate and 1 ml of 0.05% N-(1-naphthyl)ethylenediamine dihydrochloride in ethanol were further added . The mixture was left for 25 minutes at 37° C., and the absorbance was measured at 570 nm.
The unit of the enzyme activity (μmol/min/ml)=ΔOD×0.42×a dilution factor

`O=C([C@@H]1CSCN1C(=O)Cc1ccccc1)N1CCCC1` [Compound O, 1-[(R)-(-)-3-Phenylacetylthiazolidine-4-carbonyl]pyrrolidine] gave a pIC50 of 6.18.

`O=C([C@@H]1CSCN1C(=O)C=Cc1ccccc1)N1CCSC1` [Compound P, 3-[(R)-(-)-3-Cinnamoylthiazolidine-4-carbonyl]thiazolidine] was tested, and the pIC50 was 5.49.

`COC(=O)[C@@H]1CSCN1C(=O)[C@@H]1CSCN1C(=O)OCc1ccccc1` [Compound G, (R)-(-)-3-[(R)-(-)-3-Benzyloxycarbonylthiazolidine-4-carbonyl]thiazolidine-4-carboxylic acid methyl ester] (Cbz-[Thz]-[Thz]-OMe) was tested, and the pIC50 was 6.68.

Compound `O=C([C@@H]1CSCN1C(=O)Cc1ccccc1)N1CCSC1` [Compound N, 3-[(R)-(-)-3-Phenylacetylthiazolidine-4-carbonyl]thiazolidine] has a pIC50 of 7.20.

`COC(=O)[C@@H]1CCCN1C(=O)[C@@H]1CSCN1C(=O)OCc1ccccc1` [Compound B, (S)-(-)-N-[(R)-(-)-3-Benzyloxycarbonylthiazolidine-4-carbonyl]pyrrolidine-2-carboxylic acid methyl ester] (Cbz-[Thz]-Pro-OMe) gave a pIC50 of 4.14.

For `O=C([C@@H]1CSCN1C(=O)c1ccncc1)N1CCSC1` [Compound U, 3-[(R)-(-)-3-Isonicotinoylthiazoidine-4-carbonyl]thiazolidine], the pIC50 was 5.89.

`O=C([C@@H]1CSCN1C(=O)OCc1ccccc1)N1CCSC1` [Compound A, 3-[(R)-(-)-3-Benzyloxycarbonylthiazolidine-4-carbonyl]thiazolidine] was tested, and the pIC50 was 9.59.

Compound `O=C([C@@H]1CSCN1C(=O)C=Cc1ccccc1)N1CCCC1` [Compound Q, 1-[(R)-(-)-3-Cinnamoylthiazolidine-4-carbonyl]pyrrolidine] has a pIC50 of 5.34.

In the case of `O=C([C@@H]1CSCN1C(=O)OCc1ccccc1)N1CCSCC1` [Compound F, N-[(R)-(-)-3-Benzyloxycarbonylthiazolidine-4-carbonyl]thiomorpholine], the pIC50 was 3.64.

`O=C([C@@H]1CSCN1C(=O)CCc1ccccc1)N1CCSC1` [Compound H, 33-[(R)-(-)-3-(3-Phenylpropionyl)thiazolidine-4-carbonyl]thiazolidine] was tested, and the pIC50 was 6.40.
